# In patent publication US7528235B2, “Multi-functional antibodies” (The Regents of the Univarsity of California, priority 2003, dated 2009):
# B1: 2D12.5: anti-chelate monoclonal antibody that binds metal chelates of DOTA and similar structures (antibody, listed as Mus musculus, V domains shown)
# VH: QVKLQESGPGLVQPSQSLSITCTVSGFSLTDYGVHWVRQSPGKGLEWLGVIWSGGGTAYTAAFISRLNIYKDNSKNQVFFEMNSLQANDTAMYYCARRGSYPYNYFDVWGQGTTVTVSS
# VL: QAVVTQESALTTSPGETVTLTCRSSTGAVTTSNYANWVQEKPDHLFTGLIGGNNNRPPGVPARFSGSLIGDKAALTIAGTQTEDEAIYFCALWYSNHWVFGGGTRLTVLG
# modifications: murine monoclonal antibody 2D12.5 heavy chain variable domain (VH); murine monoclonal antibody 2D12.5 light chain variable domain (VL)
# What was measured:
# 2D12.5 = assay: relative binding curves of 2D12.5 for Y-DOTA isomers and Y-DOTA molecules with different sidechain locations; design: species or system murine; details: for relative binding affinity, different sidechain locations: Y-DOTA molecules, FIG. 17; for relative binding affinity, Y-DOTA isomers: coordinated metal Y^3+, FIG. 16
# Text: FIG. 16 is a graphical display showing the relative binding curves of 2D12.5 for Y-DOTA isomers and Y-DTPA. 2D12.5 binds both the (R)- and (S)-isomers of 2-(4-nitrobenzyl)-DOTA when the coordinated metal is Y^3+ (the same behavior is expected for the other rare earths). The (S)-isomer confers Λ-helicity, while the (R)-isomer confers Δ-helicity to the acetate arms. […] Y-DOTA (no-sidearm) exists is solution as a racemic mixture of the coordination isomers.
# FIG. 17 is a graphical display showing the relative binding curves of Y-DOTA molecules with different sidechain locations. […] Evaluation of the crystal structure seems to indicate that shorter substitutions at this position may bind with higher affinity. Substitutions at other locations may yield reasonably high affinitites as well. The (5-Amino-2-methoxy-phenyl)-carboxymethyl)-DOTA analyzed in this experiment was racemic, so it is not clear which isomer binds with higher affinity. The low pKa of the carboxymethyl proton makes it difficult to prepare a chirally pure molecule.
# antibody 2D12.5 = assay: competitive immunoassay (ELISA) of metal-DOTA complexes against immobilized Y-DOTA; format: binding, murine; details: 37° C., DOTA analog [S]-2-(p-nitrobenzyl)-DOTA
# Text: FIG. 13 is graphical display showing the relative binding of metal-DOTA complexes to antibody 2D12.5. A representative set of competitive binding curves obtained from ELISA experiments described in Example 3 below. Error bars (representing the standard error of the mean) are shown, but are generally smaller than the data points.
# Elements plotted in the order Sc (open circle), Lu, Yb, Tm, Er, Ho, Y (open diamond), Dy, Tb, Gd, Eu, Sm, Nd, Pr, Ce, La. ΔΔG values relative to Y-DOTA, set at 0. Error bars represent standard error of the mean.
# To determine the metal selectivity of the antibody 2D12.5, a competitive immunoassays was used to measure the binding constants of multiple metal-DOTA complexes relative to Y^3+-DOTA.
# We examined the monoclonal antibody 2D12.5, initially developed to bind specifically to Y-DOTA for targeted radiotherapy (see, e.g., Goodwin et al., i Cancer Res. 54: 5937-5946 (1994)), in order to determine the scope of its activity. To assess the metal selectivity of antibody 2D12.5, a competitive immunoassay to measure the binding constants of various metal-DOTA complexes relative to the original Y^3+ complex was developed (FIG. 12). Briefly, 2D12.5 was incubated at 37° C. in the presence of immobilized Y-DOTA and a soluble metal-DOTA competitor. […] Binding was measured by standard methods known to those of skill in the art. […]
# [1] = tested on: (S) nitrobenzyl-DOTA chelates; details: for (S) nitrobenzyl-DOTA chelates; cited from earlier work
# Janus-DOTA = details: for Janus-DOTA, a bivalent form of DOTA; cited from earlier work
# [2] = 24 hours after administration of the bound complex; cited from earlier work
molecule,measurement,setting,value
"O=C(O)CN1CCN(CC(=O)O)CCN(CC(=O)O)[C@@H](Cc2ccc([N+](=O)[O-])cc2)CN(CC(=O)O)CC1 (single isomer, unassigned) [(S)-isomer]","relative binding affinity, different sidechain locations",2D12.5,clearly stronger
same,"relative binding affinity, Y-DOTA isomers",2D12.5,preferred isomer for binding
"O=C(O)CN1CCN(CC(=O)O)CCN(CC(=O)O)C(Cc2ccc([N+](=O)[O-])cc2)CN(CC(=O)O)CC1 (single isomer, unassigned; isomer 2) [(R)-isomer, 2-(4-nitrobenzyl)-DOTA]","relative binding affinity, Y-DOTA isomers",2D12.5,affinity decreases less than an order of magnitude
(5-Amino-2-methoxy-phenyl)-carboxymethyl)-DOTA,"relative binding affinity, different sidechain locations",2D12.5,still sufficiently strong
Gd-DOTA,binding strength relative to the original Y^3+ complex (in words),antibody 2D12.5,bind more tightly than the original Y^3+ complex
same,binding strength relative to the original Y^3+ complex (in words),antibody 2D12.5; listed as Gd^3+,strongest binders
B1,binding constant Ks,[1],≈ 10^8
same,binding constant Ks,Janus-DOTA,≈ 10^8
same,2D12.5 bound to metal chelates present,[2],74-96%
